In patent US8106055B2, “Substituted amide compounds” (Gruenenthal GmbH, priority 2007, dated 2012):
Like-named read-outs stand apart in the source and are kept apart here.

Assays:
[1] = biological target: T1, human bradykinin 1 receptor (B1R) (Homo sapiens, UniProt P46663); assay: Functional investigation on the human bradykinin 1 receptor (B1R), Ca2+ FLIPR assay in CHO K1 hB1R cells; format: cell-based; settings: test substance 10 μM; for inhibition at 10 µM: CHO-K1, B1R antagonism human, read-out: B1R Ant. h [10 μM] % Inhibition; for B1R Ant. h [10 μM] % Inhibition: B1R antagonism human
T1 construct: expressed in transfected cells; host or cells: CHO K1 cells
T1 sequence (P46663 1-353): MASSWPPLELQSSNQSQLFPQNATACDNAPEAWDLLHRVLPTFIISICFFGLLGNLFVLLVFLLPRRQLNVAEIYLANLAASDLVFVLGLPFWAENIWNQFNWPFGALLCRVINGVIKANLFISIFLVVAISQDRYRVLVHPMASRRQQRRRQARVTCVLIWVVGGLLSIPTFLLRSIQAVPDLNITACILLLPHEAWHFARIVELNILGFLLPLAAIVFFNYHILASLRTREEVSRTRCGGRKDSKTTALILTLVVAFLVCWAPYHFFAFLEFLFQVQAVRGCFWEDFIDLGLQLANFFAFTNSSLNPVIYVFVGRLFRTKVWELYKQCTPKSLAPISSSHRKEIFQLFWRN
Description: (§1) Functional Investigation on the Human Bradykinin 1 Receptor (B1R)
(§2) The agonistic or antagonistic action of substances can be determined on the bradykinin 1 receptor (B1R) of the human species and rats with the following assay. In accordance with this assay, the Ca^2+ inflow through the channel is quantified with the aid of a Ca^2=-sensitive dyestuff (type Fluo-4, Molecular Probes Europe BV, Leiden, Holland) in a fluorescent imaging plate reader (FLIPR, Molecular Devices, Sunnyvale, USA).
(§3) Chinese hamster ovary cells (CHO K1 cells) transfected stably with the human B1R gene (hB1R cells) or the B1R gene of the rat (rB1R cells) are used. For functional studies, these cells are plated out on black 96-well plates with a clear base (BD Biosciences, Heidelberg, Germany or Greiner, Frickenhausen, Germany) in a density of 20,000-35,000 cells/well. The cells are left overnight at 37° C. and 5% CO2 in culture medium (hB1R cells: Nutrient Mixture Ham's F12, Gibco Invitrogen GmbH, Karlsruhe, Germany or DMEM, Sigma-Aldrich, Taufkirchen, Germany; rB1R cells: D-MEM/F12, Gibco Invitrogen GmbH, Karlsruhe, Germany) with 10 vol. % of FBS (foetal bovine serum, Gibco Invitrogen GmbH, Karlsruhe, Germany or PAN Biotech GmbH, Aidenbach, Germany).
(§4) On the following day, the cells are loaded for 60 min at 37° C. with 2.13 μM Fluo-4 (Molecular Probes Europe BV, Leiden, The Netherlands) in HBSS buffer (Hank's buffered saline solution, Gibco Invitrogen GmbH, Karlsruhe, Germany) with 2.5 mM probenecid (Sigma-Aldrich, Taufkirchen, Germany) and 10 mM HEPES (Sigma-Aldrich, Taufkirchen, Germany). The plates are then washed 2× with HBSS buffer, and HBSS buffer which additionally contains 0.1% of BSA (bovine serum albumin; Sigma-Aldrich, Taufkirchen, Germany), 5.6 mM glucose and 0.05% of gelatine (Merck KGaA, Darmstadt, Germany) is added. After a further incubation of 20 minutes at room temperature, the plates are inserted into the FLIPR for the Ca^2+ measurement.
(§5) Alternatively, the plates are washed with buffer A (15 mM HEPES, 80 mM NaCl, 5 mM KCl, 1.2 mM CaCl2, 0.7 mM MgSO4, 2 g/l glucose, 2.5 mM probenecid), buffer A is added and the plates are loaded with 2.5 μM Fluo-4 and 0.025% of Pluronic F127 (Sigma-Aldrich, Taufkirchen, Germany). Thereafter, the cells are washed 2× with buffer A and incubated for 30 minutes with buffer A, which additionally contains 0.05% of BSA and 0.05% of gelatine, at room temperature and thereafter inserted into the FLIPR for the Ca^2+ measurement.
(§6) The Ca^2+-dependent fluorescence is measured before and after addition of substances (λex=488 nm, λem=540 nm). Quantification is by measurement of the highest fluorescence intensity (FC, fluorescence counts) over time.
(§7) The FLIPR protocol consists of 2 additions of substance. Test substances (10 μM) are first pipetted on to the cells and the Ca^2+ inflow is compared with the control (hB1R: Lys-Des-Arg^9-bradykinin >=50 nM; rB1R: Des-Arg^9-bradykinin 10 μM). This gives the information in % activation based on the Ca^2+ signal after addition of Lys-Des-Arg^9-bradykinin (>=50 nM) or Des-Arg^9-bradykinin (10 μM).
(§8) After incubation for 10-20 minutes, Lys-Des-Arg^9-bradykinin (hB1R) or Des-Arg^9-bradykinin (rB1R) is applied in the concentration of the EC80 and the inflow of Ca^2+ is likewise determined.
(§9) Antagonists lead to a suppression of the Ca^2+ inflow. % inhibition compared with the maximum achievable inhibition is calculated.
(§10) To determine the IC50 value, the substances are added in various concentrations. Duplicate or triplicate determinations (n=2 or n=3) are carried out, and these are repeated in at least one further independent experiment (N>=2).
(§11) Preferably, the compounds have a B1R antagonistic action on the human receptor and/or on the rat receptor. The following data are given by way of example in the following table: (In this, “B1R Ant. h” represents “B1R antagonism human” and “B1R Ant. r” represents “B1R antagonism rat”)

human μ opiate receptor = biological target: T2, human μ opiate receptor (Homo sapiens, UniProt P35372); assay: Affinity for the human μ opiate receptor ([3H]-naloxone displacement, CHO-K1 receptor membrane preparation, SPA); format: binding; settings: test concentration of 1 μM
T2 construct: purchased PerkinElmer Life Sciences, Zaventem, Belgium RB-HOM; host or cells: CHO-K1 cells (membrane preparation)
T2 sequence (P35372 whole entry): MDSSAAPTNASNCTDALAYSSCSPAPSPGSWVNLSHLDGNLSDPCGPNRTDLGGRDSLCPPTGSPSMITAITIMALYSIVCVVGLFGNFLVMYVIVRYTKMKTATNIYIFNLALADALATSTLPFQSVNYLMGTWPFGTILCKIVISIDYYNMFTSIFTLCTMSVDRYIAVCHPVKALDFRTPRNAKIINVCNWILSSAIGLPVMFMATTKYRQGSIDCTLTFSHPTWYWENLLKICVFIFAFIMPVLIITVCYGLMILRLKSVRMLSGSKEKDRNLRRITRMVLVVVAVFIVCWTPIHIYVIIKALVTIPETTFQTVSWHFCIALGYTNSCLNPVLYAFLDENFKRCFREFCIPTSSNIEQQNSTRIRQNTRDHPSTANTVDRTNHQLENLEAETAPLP
Description: Binding data of the compounds on the μ opioid receptor and data on the inhibition of reuptake of serotonin (5-HT) are given in Table 1. The data for the μ receptor were measured at a test concentration of 1 μM, and those for the serotonin reuptake at 10 μM. The values are stated in % inhibition.
Investigation of the Activity of the Compounds of the Invention Method for Determining the Affinity for the Human μ Opiate Receptor
The receptor affinity for the human p opiate receptor is determined in a homogeneous set-up in microtitre plates. For this, dilution series of the substances to be tested are incubated with a receptor membrane preparation (15-40 μg of protein/250 μl of incubation batch) of CHO-K1 cells which express the human p opiate receptor (RB-HOM receptor membrane preparation from PerkinElmer Life Sciences, Zaventem, Belgium) in the presence of 1 nmol/l of the radioactive ligand [^3H]-naloxone (NET719, PerkinElmer Life Sciences, Zaventem, Belgium) and 1 mg of WGA-SPA-Beads (wheat germ agglutinin SPA beads from Amersham/Pharmacia, Freiburg, Germany) in a total volume of 250 μl for 90 minutes at room temperature. 50 mmol/l of Tris-HCl supplemented with 0.06% of bovine serum albumin is used as the incubation buffer. 100 μmol/l of naloxone are additionally added for determination of the non-specific binding. After the end of the ninety-minute incubation time, the microtitre plates are centrifuged for 20 minutes at 1,000 g and the radioactivity is measured in a β-counter (Microbeta-Trilux, PerkinElmer Wallac, Freiburg, Germany). The percentage displacement of the radioactive ligand from its binding to the human p opiate receptor is determined at a concentration of the test substances of 1 μmol/l and stated as the percentage inhibition of the specific binding. Starting from the percentage displacement by various concentrations of the test substances, IC50 inhibitory concentrations which cause a 50 percent displacement of the radioactive ligand are calculated. By conversion by means of the Cheng-Prusoff relationship, Ki values for the test substances are obtained.

[2] = biological target: T3, bradykinin 1 receptor (B1R) of the rat (Rattus norvegicus, UniProt P97583); assay: Functional investigation on the rat bradykinin 1 receptor (B1R), Ca2+ FLIPR assay in CHO K1 rB1R cells; format: cell-based; settings: CHO-K1, B1R antagonism rat; test substance 10 μM; Ca2+ FLIPR, CHO K1 rB1R cells; read-out: B1R Ant. r [10 μM] % Inhibition
T3 construct: expressed in transfected cells; host or cells: CHO K1 cells
T3 sequence (P97583 1-337): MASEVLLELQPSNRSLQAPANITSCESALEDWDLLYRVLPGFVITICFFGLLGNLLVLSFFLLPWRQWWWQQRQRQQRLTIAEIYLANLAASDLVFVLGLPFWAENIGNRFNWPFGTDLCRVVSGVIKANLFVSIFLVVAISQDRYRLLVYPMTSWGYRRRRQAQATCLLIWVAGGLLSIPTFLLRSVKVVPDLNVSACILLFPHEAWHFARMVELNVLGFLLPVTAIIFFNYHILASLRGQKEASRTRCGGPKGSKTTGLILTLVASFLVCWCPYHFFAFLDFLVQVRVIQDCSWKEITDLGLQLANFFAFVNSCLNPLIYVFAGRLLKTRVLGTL
Description: as §1, §2, §3, §4, §5, §6, §7, §8, §9, §10, §11

Row | SMILES | μ (binding on the μ opioid receptor, % inhibition) (human μ opiate receptor) [%] | B1R Ant. h [10 μM] % Inhibition ([1]; Ca2+ FLIPR, CHO K1 hB1R cells) [%] | other results
1 | Cc1ccc(S(=O)(=O)N2CCC(OCC(=O)NC3CCC(C(c4ccccc4)N(C)C)CC3)C2)cc1 (centres unmarked) [Example 123, N-(4-((dimethylamino)(phenyl)methyl)cyclohexyl)-2-(1-tosylpyrrolidin-3-yloxy)acetamide] |  |  | inhibition at 10 µM ([1]; Ca2+ FLIPR, CHO K1 hB1R cells): -6%; inhibition at 1 µM (human μ opiate receptor; read-out: μ (binding on the μ opioid receptor, % inhibition)): 27%
2 | CC(Oc1ccccc1)C(=O)NC1CCC(C(c2ccc(F)cc2)N(C)C)CC1 (centres unmarked) [Example 516] | 40 |  | 
3 | CN(C)C(c1ccccc1)C1CCC(NC(=O)COCCN(C)S(=O)(=O)c2ccc(F)cc2)CC1 (centres unmarked) [Example 585] | 41 | −10 | 
4 | CN(C)C(c1ccccc1)C1CCC(NC(=O)COCCN(C)S(=O)(=O)c2ccccc2)CC1 (centres unmarked) [Example 588] | 29 | 6 | 
5 | CN(C)C(c1ccccc1)C1CCC(NC(=O)COCCN(C)S(=O)(=O)c2ccc(Cl)cc2)CC1 (centres unmarked) [Example 589] | 25 | 28 | 
6 | COc1ccc(S(=O)(=O)N(C)CCOCC(=O)NC2CCC(C(c3ccccc3)N(C)C)CC2)cc1 (centres unmarked) [Example 590] | 75 | −1 | 
7 | CN(C)C(c1ccccc1)C1CCC(NC(=O)COC2CCN(S(=O)(=O)c3ccc(F)cc3)C2)CC1 (centres unmarked) [Example 591] | 93 | 0 | 
8 | COc1ccc(S(=O)(=O)N(C)CCOCC(=O)NC2CCC(C(c3ccccc3)N(C)C)CC2)cc1OC (centres unmarked) [Example 592] | 83 | 1 | 
9 | CN(C)C(c1ccccc1)C1CCC(NC(=O)COCCN(C)S(=O)(=O)c2cccc(C(F)(F)F)c2)CC1 (centres unmarked) [Example 593] | 91 | 56 | 
10 | CN(C)C(c1ccccc1)C1CCC(NC(=O)COCCN(C)S(=O)(=O)c2ccc(OC(F)(F)F)cc2)CC1 (centres unmarked) [Example 594] | 94 | 20 | 
11 | CN(C)C(c1ccccc1)C1CCC(NC(=O)COC2CCN(S(=O)(=O)c3ccccc3)C2)CC1 (centres unmarked) [Example 595] | 51 | 15 | 
12 | CN(C)C(c1ccccc1)C1CCC(NC(=O)COC2CCN(S(=O)(=O)c3ccc(Cl)cc3Cl)C2)CC1 (centres unmarked) [Example 596] | 84 | 32 | 
13 | CN(Cc1ccccc1)C(c1ccccc1)C1CCC(NC(=O)COCCN(C2CC2)S(=O)(=O)c2c(Cl)cc(Cl)cc2Cl)CC1 (centres unmarked) [Example 604, N-{4-[(benzylmethylamino)-phenylmethyl]-cyclohexyl}-2-{2-[cyclopropyl-(2,4,6-trichlorobenzenesulfonyl)-amino]-ethoxy}-acetamide] |  |  | inhibition at 10 µM ([1]; Ca2+ FLIPR, CHO K1 hB1R cells): -18%; inhibition at 10 µM [2]: 33%
14 | COc1ccc(-c2noc(C(=O)NCC(=O)NC3CCC(C(CCc4ccccc4)N(C)C)CC3)n2)cc1OC (centres unmarked) [Example 794, 3-(3,4-dimethoxy-phenyl)-[1,2,4]oxadiazole-5-carboxylic acid {[4-(1-dimethylamino-3-phenyl-propyl)-cyclohexylcarbamoyl]-methyl}-amide] |  |  | inhibition at 10 µM ([1]; Ca2+ FLIPR, CHO K1 hB1R cells): 1%
15 | CN(C)C(CCc1ccccc1)C1CCC(NC(=O)CNC(=O)c2nc(-c3ccc(Cl)cc3Cl)no2)CC1 (centres unmarked) [Example 795, 3-(2,4-dichloro-phenyl)-[1,2,4]oxadiazole-5-carboxylic acid {[4-(1-dimethylamino-3-phenyl-propyl)-cyclohexylcarbamoyl]-methyl}-amide] |  |  | inhibition at 10 µM ([1]; Ca2+ FLIPR, CHO K1 hB1R cells): 103%
16 | Cc1ccc(F)cc1-c1noc(C(=O)NCC(=O)NC2CCC(C(CCc3ccccc3)N(C)C)CC2)n1 (centres unmarked) [Example 796, 3-(5-fluoro-2-methyl-phenyl)-[1,2,4]oxadiazole-5-carboxylic acid {[4-(1-dimethylamino-3-phenyl-propyl)-cyclohexylcarbamoyl]-methyl}-amide] |  |  | inhibition at 10 µM ([1]; Ca2+ FLIPR, CHO K1 hB1R cells): 94%
17 | CN(C)C(CCc1ccccc1)C1CCC(NC(=O)CCNC(=O)c2nc(-c3cccs3)no2)CC1 (centres unmarked) [Example 797, 3-thiophen-2-yl-[1,2,4]oxadiazole-5-carboxylic acid {2-[4-(1-dimethylamino-3-phenyl-propyl)-cyclohexylcarbamoyl]-ethyl}-amide] |  |  | inhibition at 10 µM ([1]; % inhibition compared with the maximum achievable inhibition): 0%
